Starred links: 1 amine or outer side, 2 acyl side, 3 side chain; linkers in the order of their positions; H or OH if unused. Positions of bridges follow the written chain, without caps; N, C: chain ends. Non-standard residues stand in square brackets, D forms with d. Residues, ends and D or L forms follow the SMILES beside them. Chains are numbered I, II in the order given. Actinocin(9to1) = Cc1c2oc3c(C)ccc(C(=O)[*:1])c3nc-2c(C(=O)[*:2])c(N)c1=O; NMeV = CN[C@H](C(=O)O)C(C)C; Sar = CNCC(=O)O
How the values were obtained:
[1] = target: T1, human androgen receptor (hAR) (Homo sapiens, UniProt P10275); experiment: AR-CALUX antagonist assay (medium spiked with DHT at EC50); assay type: cell-based; conditions: for AR-CALUX Antagonist classification: mean of classifications, specificity control taken into account
T1 construct: host or cells: U2-OS human osteosarcoma cells (ATCC HTB 96), stably transfected (AR-CALUX cell line)
T1 sequence (P10275 1-920): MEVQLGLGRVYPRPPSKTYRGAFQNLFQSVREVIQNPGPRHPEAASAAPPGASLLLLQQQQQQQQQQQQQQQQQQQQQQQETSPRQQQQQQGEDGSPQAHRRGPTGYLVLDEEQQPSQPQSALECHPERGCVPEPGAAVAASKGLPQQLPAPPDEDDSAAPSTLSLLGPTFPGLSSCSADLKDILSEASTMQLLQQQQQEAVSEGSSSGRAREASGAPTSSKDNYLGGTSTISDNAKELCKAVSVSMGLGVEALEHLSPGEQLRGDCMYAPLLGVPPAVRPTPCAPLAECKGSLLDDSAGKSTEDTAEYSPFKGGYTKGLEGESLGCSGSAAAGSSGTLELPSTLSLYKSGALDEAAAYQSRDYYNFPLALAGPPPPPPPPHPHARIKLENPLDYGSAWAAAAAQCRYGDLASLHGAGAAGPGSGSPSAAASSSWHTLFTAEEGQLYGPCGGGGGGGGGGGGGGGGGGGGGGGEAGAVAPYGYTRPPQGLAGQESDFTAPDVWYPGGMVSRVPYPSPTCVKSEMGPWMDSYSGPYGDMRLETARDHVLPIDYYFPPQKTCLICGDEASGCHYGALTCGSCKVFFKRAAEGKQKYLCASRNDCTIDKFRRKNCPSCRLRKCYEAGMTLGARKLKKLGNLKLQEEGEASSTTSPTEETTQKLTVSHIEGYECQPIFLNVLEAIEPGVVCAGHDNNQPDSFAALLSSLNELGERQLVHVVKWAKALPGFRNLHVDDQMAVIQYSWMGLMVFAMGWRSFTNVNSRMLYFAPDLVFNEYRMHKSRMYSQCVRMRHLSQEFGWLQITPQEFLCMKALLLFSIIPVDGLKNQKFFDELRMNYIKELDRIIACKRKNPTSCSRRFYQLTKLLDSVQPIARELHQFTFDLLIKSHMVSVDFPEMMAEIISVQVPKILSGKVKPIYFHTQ
From the text: (§1) The AR-CALUX® cell line was created by BioDetection Systems (BDS). It can be purchased from BDS with a license (https://www.biodetectionsystems.com). The human osteosarcoma cell line U2-OS (ATCC HTB 96) was transfected with 2 constructs: pSG5-neo-hAR carrying the cDNA of a human androgen receptor (hAR) under a constitutive promoter, and, a luciferase reporter gene which is preceded by a triple tandem of AREs in front of a TATA box (3x ARE Luc). […] The AR-CALUX® cell line was obtained from the test method developer BDS. EURL ECVAM prepared a master cell bank and a large working cell bank which were tested for the absence of mycoplasma, bacteria, fungi, and yeast and for the absence of Hepatitis B and C and HIV. In addition, to verifying the authenticity of the cell line, Short Tandem Repeat (STR) profiling was carried out to confirm the test system to be U2-OS cells. […] The laboratories were requested, at the end of each part of the study (Parts 1, 2, and 3), to perform a mycoplasma test of their choice. Additional aliquots were sent to EURL ECVAM for a reanalysis of authenticity.
(§2) Subsequently, the test chemical was assessed with a prescreen run (dilution steps of 10) and simultaneously with the quantitative cytotoxicity test to determine (1) cytotoxic concentrations, (2) the response, and (3) the appropriate dose range to be tested. […] The cytotoxicity test was performed once more. Test chemicals were diluted in media and consisted of 8 serial dilutions. Each dilution was tested in triplicate.
(§3) Each experiment (run) was comprised of a maximum of 6 plates. The first plate would contain 8 serial dilutions of the reference chemical DHT (for agonism) or Flutamide (for antagonism), while the positive and negative controls were added at fixed concentrations. In addition, a solvent control was added (medium without the chemical but with DMSO 0.1%).
(§4) For the antagonist assay, the medium was supplemented with DHT at EC50 concentration (standard assay). […] Each antagonist assay was accompanied by a specificity control test carried out on the same plate.
A. Positive (competitive antagonist) when the relative induction (Yc) of the test item is ≤ 80% (REF RPC80) for two or more consecutive concentrations and […]

[2] = target: T1, human androgen receptor (hAR); assay type: cell-based; conditions: for Classification Run1: run 1; for Classification Run3: run 3; for Shift Direction of specificity control dose response: vs standard antagonist dose response
From the text: as §4
the square of the correlation coefficient (R^2) is ≤ 0.9 between the relative induction of the test item (Yc) and its specificity control (Sc)

[3] = test system: androgen receptor; conditions: tested at high concentrations (10 µM); ref Sonneveld et al., (2005); cited from earlier work
[4] = test system: androgen receptor; set-up: method as in Park et al., 2021; conditions: ref Park et al., 2021; cited from earlier work
[5] = target: T1, human androgen receptor (hAR); experiment: cell-based; assay type: cell-based
From the text: as §1, §2, §3
A. Positive when the relative induction (Yc) of the test item is ≥ 10% (REF RPC10) for two or more consecutive concentrations.

[6] = test system: androgen receptor; conditions: ref OECD, 2020b; cited from earlier work

With `Cc1c2oc3c(C)ccc(C(=O)N[C@@H]4C(=O)N[C@H](C(C)C)C(=O)N5CCC[C@H]5C(=O)N(C)CC(=O)N(C)[C@@H](C(C)C)C(=O)O[C@@H]4C)c3nc-2c(C(=O)N[C@@H]2C(=O)N[C@H](C(C)C)C(=O)N3CCC[C@H]3C(=O)N(C)CC(=O)N(C)[C@@H](C(C)C)C(=O)O[C@@H]2C)c(N)c1=O` [Actinomycin D] (I: T[dV]P[Sar][NMeV] / II: T[dV]P[Sar][NMeV]; ester I:1-I:C, II:1-II:C; linker I:N-II:N via Actinocin(9to1)) the “AR-CALUX antagonist result in words” value [1] was “false positive response”, the “AR-CALUX Antagonist classification” value [1] was “N(FP)” and the “Scn (normalized dose response for the specificity control)” value [2] was over 80%. The “Classification Run1” value ([2]; antagonist) was “N”, the “Classification Run2” value ([2]; antagonist, run 2) was “N(FP)” and the “Classification Run3” value ([2]; antagonist) was “N(FP)”. For the same compound, the “Shift Direction of specificity control dose response” value [2] was “Right”.

In the case of `CC(=O)[C@H]1CC[C@H]2[C@@H]3CCC4=CC(=O)CC[C@]4(C)[C@H]3CC[C@]12C` [Progesterone], the “RTA in comparison to DHT” value [3] is listed as 36% and the “22Rv1/MMTV/GR-KO TA agonist result in words” value [4] is listed as “positive”.

For `CC(C)(O)C(=O)Nc1ccc([N+](=O)[O-])c(C(F)(F)F)c1` [Hydroxyflutamide], the “AR-CALUX agonist result in words” value [5] was “negative”, the “Agonist classification per run, Lab 1” value [5] was “N N N” and the “Agonist classification per run, Lab 2” value [5] was “N N N”. The “Agonist classification per run, Lab 3” value [5] was “N N N”, the “Agonist classification per run, Lab 4” value [5] was “N N N” and the “Antagonist classification per run, Lab 1” value [1] was “P P P”. The “Antagonist classification per run, Lab 2” value [1] was “P P P”, the “Antagonist classification per run, Lab 3” value [1] was “P P P” and the “Antagonist classification per run, Lab 4” value [1] was “P P P”. The “AR-EcoScreen agonist result in words” value [6] was “negative” and the “22Rv1/MMTV/GR-KO TA agonist result in words” value [4] was “positive”.

For `C[C@]12CC[C@@H]3c4ccc(O)cc4C[C@@H](CCCCCCCCC[S+]([O-])CCCC(F)(F)C(F)(F)F)[C@H]3[C@@H]1CC[C@@H]2O` (some centres unmarked) [Fulvestrant], the “AR-CALUX antagonist result in words” value [1] was “false positive”, the “AR-CALUX Antagonist classification” value [1] was “N(FP)” and the “Scn (normalized dose response for the specificity control)” value [2] was over 80%. The “Classification Run1” value ([2]; antagonist) was “N(FP)”, the “Classification Run3” value ([2]; antagonist) was “N(FP)b” and the “Shift Direction of specificity control dose response” value [2] was “Right”.
